Test results: patent US20230278972A1, “SUBSTITUTED HALOALKYL SULFONANILIDE HERBICIDES” (FMC Corporation, priority 2020, published 2023)

Tests used:
Type in all cases: in vivo
[1] = test system: Foxtail, Giant (giant foxtail, Setaria faberi); assay: Test A postemergence, Foxtail, Giant; conditions: Postemergence
Outline: (§1)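 After sowing into a sand-amended loam, pots for the preemergence test were treated by spraying directly onto soil. In parallel, seedlings at the one- to two-leaf stage and 2 to 10 cm tall were treated postemergence with the identical surfactant-containing formulation.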

[2] = test system: wheat (Triticum aestivum); assay: Test A postemergence, wheat; conditions: Postemergence
Outline: (§2)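 Preemergence: seeded pots of loam plus sand received a directed soil spray. Postemergence: seedlings at one to two leaves, 2 to 10 cm high, were oversprayed. Each compound was formulated in a non-phytotoxic solvent mix that included a surfactant.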

[3] = test system: barnyardgrass (Echinochloa crus-galli); assay: Test A postemergence, barnyardgrass; conditions: Postemergence
Outline: as §2

[4] = test system: Foxtail, Giant (giant foxtail, Setaria faberi); assay: Test A preemergence, Foxtail, Giant; conditions: Preemergence; for Foxtail, Giant plant response rating: 125 g ai/ha, visual injury on 0 to 100 scale (0 no effect, 100 complete control), approximately 10 days; for Plant response rating, Foxtail, Giant: 0 to 100 scale (0 no effect, 100 complete control)
Outline: as §1

[5] = test system: ragweed (common ragweed, Ambrosia artemisiifolia); assay: Test A postemergence, ragweed; conditions: Postemergence
Outline: as §1

[6] = test system: pigweed (Amaranthus retroflexus); assay: Test A preemergence, pigweed; conditions: for Pigweed plant response rating: 125 g ai/ha, visual injury on 0 to 100 scale (0 no effect, 100 complete control), approximately 10 days; for Plant response rating, Pigweed: 0 to 100 scale (0 no effect, 100 complete control)
Outline: as §2

[7] = test system: galium (catchweed bedstraw, Galium aparine); assay: Test A postemergence, galium; conditions: Postemergence
Outline: as §2

[8] = test system: ragweed (common ragweed, Ambrosia artemisiifolia); assay: Test A preemergence, ragweed; conditions: Preemergence; for Ragweed plant response rating: 125 g ai/ha, visual injury on 0 to 100 scale (0 no effect, 100 complete control), approximately 10 days; for Plant response rating, Ragweed: 0 to 100 scale (0 no effect, 100 complete control)
Outline: as §1

kochia (Bassia scoparia) [9] = assay: Test A preemergence, kochia; conditions: Preemergence; for Kochia plant response rating: 125 g ai/ha, visual injury on 0 to 100 scale (0 no effect, 100 complete control), approximately 10 days; for Plant response rating, Kochia: 0 to 100 scale (0 no effect, 100 complete control)
Outline: as §1

[10] = test system: Ryegrass, Italian (Italian ryegrass, Lolium multiflorum); assay: Test A preemergence, Ryegrass, Italian; conditions: Preemergence; for Ryegrass, Italian plant response rating: 125 g ai/ha, visual injury on 0 to 100 scale (0 no effect, 100 complete control), approximately 10 days; for Plant response rating, Ryegrass, Italian: 0 to 100 scale (0 no effect, 100 complete control)
Outline: as §1

[11] = test system: barnyardgrass (Echinochloa crus-galli); assay: Test A preemergence, barnyardgrass; conditions: Preemergence; for Barnyardgrass plant response rating: 125 g ai/ha, visual injury on 0 to 100 scale (0 no effect, 100 complete control), approximately 10 days; for Plant response rating, Barnyardgrass: 0 to 100 scale (0 no effect, 100 complete control)
Outline: as §1

kochia (Bassia scoparia) [12] = assay: Test A postemergence, kochia; conditions: Postemergence
Outline: as §1

[13] = test system: blackgrass (Alopecurus myosuroides); assay: Test A postemergence, blackgrass; conditions: Postemergence
Outline: as §1

[14] = test system: Ryegrass, Italian (Italian ryegrass, Lolium multiflorum); assay: Test A postemergence, Ryegrass, Italian; conditions: Postemergence
Outline: as §1

corn (Zea mays) = assay: Test A postemergence, corn; conditions: Postemergence
Outline: as §1

[15] = test system: pigweed (Amaranthus retroflexus); assay: Test A postemergence, pigweed; conditions: Postemergence
Outline: as §1

[16] = 125 g ai/ha, visual injury approx. 10 days, 0 to 100 scale (0 no effect, 100 complete control)
[17] = 500 g ai/ha, visual injury vs untreated controls after approx. 10 days, 0 to 100 scale (0 no effect, 100 complete control)
[18] = 31 g ai/ha, visual injury on 0 to 100 scale (0 no effect, 100 complete control), approx. 10 days
[19] = 31 g ai/ha, 0 to 100 scale (0 no effect, 100 complete control)
[20] = 31 g ai/ha, visual injury, approx. 10 days
[21] = 125 g ai/ha, 0 to 100 scale (0 no effect, 100 complete control)

Row | Structure (SMILES) | Plant response rating, Foxtail, Giant [1, 16] | Plant response rating, Barnyardgrass [3, 16] | Foxtail, Giant plant response rating [4] | Pigweed plant response rating [6] | Plant response rating, Galium [7, 16] | Ragweed plant response rating [8] | Kochia plant response rating (kochia (Bassia scoparia) [9]) | Ryegrass, Italian plant response rating [10] | Barnyardgrass plant response rating [11] | Plant response rating, Kochia (kochia (Bassia scoparia) [12]; [16]) | Plant response rating, Blackgrass [13, 16] | Plant response rating, Corn (corn (Zea mays); [16]) | Plant response rating, Foxtail, Giant [1, 18] | Plant response rating, Wheat [2, 18] | Plant response rating, Foxtail, Giant [4, 20] | Plant response rating, Ragweed [5, 18] | Plant response rating, Pigweed [6, 20] | Plant response rating, Galium [7, 18] | Plant response rating, Ragweed [8, 20] | Plant response rating, Kochia (kochia (Bassia scoparia) [9]; [20]) | also measured
1 | Cc1cc(C)c(-n2nccc(Cl)c2=O)cc1NS(=O)(=O)C(F)(F)F [Compound 82] | 20 | 60 | 0 | 90 | 20 | 0 | 70 | 20 | 40 | 0 | 0 | 0 | – | – | – | – | – | – | – | – | Foxtail, Giant plant response rating [1, 17]: 50; Plant response rating, Wheat [2, 16]: 0; Wheat plant response rating [2, 17]: 0; Barnyardgrass plant response rating [3, 17]: 20; Plant response rating, Foxtail, Giant ([4]; 500 g ai/ha): 60; Plant response rating, Ragweed [5, 16]: 0; Ragweed plant response rating [5, 17]: 30; Plant response rating, Pigweed ([6]; 500 g ai/ha): 80; Galium plant response rating [7, 17]: 10; Plant response rating, Ragweed ([8]; 500 g ai/ha): 20; Plant response rating, Kochia (kochia (Bassia scoparia) [9]; 500 g ai/ha): 90; Plant response rating, Ryegrass, Italian ([10]; 500 g ai/ha): 40; Plant response rating, Barnyardgrass ([11]; 500 g ai/ha): 80; Kochia plant response rating (kochia (Bassia scoparia) [12]; [17]): 0; Blackgrass plant response rating [13, 17]: 0; Plant response rating, Ryegrass, Italian [14, 16]: 0; Ryegrass, Italian plant response rating [14, 17]: 0; Corn plant response rating (corn (Zea mays); [17]): 40; Plant response rating, Pigweed [15, 16]: 0; Pigweed plant response rating [15, 17]: 40
2 | Cc1cc(C)c(C2=NOC3CCCCC23)cc1NS(=O)(=O)C(F)(F)F (centres unmarked) [Compound 131] | 10 | 80 | 100 | 90 | 90 | 40 | 40 | 80 | 90 | 60 | 0 | 20 | 0 | 0 | 90 | 30 | 30 | 60 | 0 | 30 | Plant response rating, Barnyardgrass [3, 19]: 20; Plant response rating, Ryegrass, Italian [10, 20]: 30; Plant response rating, Barnyardgrass [11, 20]: 70; Plant response rating, Kochia (kochia (Bassia scoparia) [12]; [18]): 40; Plant response rating, Blackgrass [13, 19]: 20; Plant response rating, Ryegrass, Italian [14, 18]: 0; Plant response rating, Corn (corn (Zea mays); [18]): 0; Plant response rating, Pigweed [15, 18]: 50
3 | Cc1cc(C)c(C2=NOC3(C2)CC(C)CC(C)C3)cc1NS(=O)(=O)C(F)(F)F (single isomer, unassigned) [Compound 168] | – | – | 0 | 10 | – | 0 | 20 | 40 | 60 | – | – | – | 0 | 0 | 0 | 0 | 0 | 70 | 0 | 0 | Plant response rating, Foxtail, Giant [1, 21]: 10; Plant response rating, Wheat [2, 21]: 0; Plant response rating, Barnyardgrass [3, 18]: 30; Plant response rating, Barnyardgrass [3, 21]: 70; Plant response rating, Ragweed [5, 21]: 60; Plant response rating, Galium [7, 21]: 90; Plant response rating, Ryegrass, Italian [10, 20]: 0; Plant response rating, Barnyardgrass [11, 20]: 0; Plant response rating, Kochia (kochia (Bassia scoparia) [12]; [18]): 0; Plant response rating, Kochia (kochia (Bassia scoparia) [12]; [21]): 10; Plant response rating, Blackgrass [13, 18]: 0; Plant response rating, Blackgrass [13, 21]: 10; Plant response rating, Ryegrass, Italian [14, 18]: 0; Plant response rating, Ryegrass, Italian [14, 21]: 30; Plant response rating, Corn (corn (Zea mays); [18]): 0; Plant response rating, Corn (corn (Zea mays); [21]): 0; Plant response rating, Pigweed [15, 18]: 60; Plant response rating, Pigweed [15, 21]: 80
